Laboratory results as given in patent publication US4879382A, “Pyrido(3,4-f)pyrrolo(1,2-b)(1,2,5)triazepines” (Hoechst-Roussel Pharmaceuticals, Inc., priority 1988, dated 1989).

Experiments:
[1] = tetrabenazine induced ptosis assay (antidepressant activity); format: in vivo, mice (Charles River, CD-1); conditions: mice; for ED50: Mus musculus, ip, dose for 50% inhibition of tetrabenazine-induced ptosis
Experimental: Several of the compounds of this invention are also useful as antidepressants by virtue of their ability to elicit an antidepressant response in mammals. Antidepressant activity is determined by the tetrabenazine induced ptosis assay in mice, [International Journal of Neuropharmacology, 8, 72 (1969], a standard assay for the determination of antidepressant activity. […] Tetrabenazine methanesulfonate (76.78% as the free base) is dissolved in distilled water and the concentration of the solution is adjusted so that the dose, administered intraperitoneally (i.p.) to the animals, is 40 mg of tetrabenazine base per kg of animal body weight. The test compound is administered intraperitoneally (i.p.) or orally to the subject animals, and the tetrabenazine solution is administered 30 minutes or 60 minutes, respectively, thereafter. Tetrabenazine solution and the solvent used to dissolve, or suspend, the test compounds are administered by the same route and at the same intervals as the test compounds to a control group. […] The vehicle-control group score is used as a determination of the validity of each test. The results are discarded and the test is repeated, if the control score is determined to be less than 17. […] A linear-regression analysis is used to estimate ED50 values and 95% confidence limits.

[2] = dark avoidance assay (memory enhancing activity); format: in vivo; conditions: mice
Experimental: Pursuant to the dark avoidance assay, mice are tested for their ability to remember an unpleasant stimulus for a period of 24 hours. A mouse is placed in a chamber that contains a dark compartment; a strong incandescent light drives it to the dark compartment, where an electric shock is administered through metal plates on the floor. The animal is removed from the testing apparatus and tested again, 24 hours later, for the ability to remember the electric shock.

[3] = phenyl-p-quinone writhing assay (analgesic activity); format: in vivo, mice (Charles River, CD-1); conditions: mice
Experimental: The compounds of this invention are useful as analgesic agents due to their ability to alleviate pain in mammals. The procedure employed to determine analgetic utility is a modification of the phenyl-p-quinone writhing assay in mice, a standard assay for analgetic activity [Proc. Soc. Exptl. Med., 95 729 (1957)]. Pursuant to the modified procedure phenyl-p-benzoquinone (Eastman, 12.5 mg) is dissolved in 5 ml of 95% ethanol and the solution is diluted to a total volume of 100 ml with distilled water. The solution is administered to the subject mice intraperitoneally at a dose of 10 ml per kg of body weight. A characteristic "writhe", an inward rotation of one or more feet with twisting and turning of the trunk, drawing in of the abdominal wall, lordosis and arching of the back, is produced.
A total of 28 male mice (Charles River, CD-1), weighing 18 to 30 grams, are employed for a time response. The subject animals receive food and water ad libitum. Test compounds are dissolved in distilled water, or suspended in distilled water containing one drop of a suitable surfactant, such as Tween-80.
Four groups of five animals (20 animals) are given the test compound subcutaneously (s.c.) or perorally (p.o.) at 15, 30, 45 and 60 minutes prior to administration of the phenyl-p-benzoquinone. A control group (2 animals per group) receive an equal volume of the vehicle. After the administration of the phenyl-p-benzoquinone, the mice are placed separately in one liter beakers, and after five minutes, are observed for ten minutes. The number of writhes for each animal is recorded. Thefollowing formula is used to compute the percent inhibition: [formula]
A dose range determination is run in the same manner as the time response except 10 animals per group are tested at the peak time of test drug activity. Fifty animals, 4 test drug groups, and a vehicle control are employed. Animals are dose and tested in a randomized manner. The time period with the greatest percent of inhibition is considered the peak time.

[4] = adjuvant-induced polyarthritis syndrome in rats assay (antiinflammatory activity); format: in vivo, rats (Charles River-Wistar Lewis); conditions: Rattus norvegicus, po, 504 h, read-out: Non-Injected Paw ED50
Experimental: Several of the compounds of this invention have utility as antiinflammatory agents. Antiinflammatory activity was measured pursuant to the adjuvant-induced polyarthritis syndrome in rats assay by a procedure similar to that described by C. M. Pearson and F. D. Wood, Arthritis and Rheumatism, 2, 440 (1959).
Groups of 10 male Charles River-Wistar Lewis rats weighing 150 to 175 g were individually housed and maintained on a regular rat chow diet. Water was given ad libitum. The adjuvant was prepared by suspending 75 mg of Mycobacterium butyricum (Difco Laboratories, Detroit, Mich.) in 10 ml of white paraffin oil with continuous stirring for 2 hours at room temperature prior to administration. Test compounds are prepared by suspending the drug in water, adding one drop of Tween 80 per 10 ml of suspension, and homogenizing. The adjuvant suspension (0.1 ml) was injected into the footpad of the left hind paw of the rat. Test compound suspensions were administered orally (10 ml/kg) the day before adjuvant suspension injection and the administration was continued daily for 21 days. […] Injected and non-injected paw volumes were determined on the day the adjuvant suspension was given, and on subsequent days thereafter (usually days 5, 10, 18, and 21) by the method of C. […]
The percent inhibition of paw volume (injected and non-injected paw) were calculated by the following formula: [formula] […]

CC1Nc2cnccc2N(C)n2cccc21 (centres unmarked) [10,11-Dihydro-5,10-dimethyl-5H-pyrido[3,4-f]pyrrolo[1,2-b][1,2,5]triazepine]
inhibition of ptosis ([1]; at a dose of 10 mg/kg i.p.): 47% | % of Animals With Scopolamine Induced Memory Deficit Reversed ([2]; 2.5 mg/kg s.c.): 33%

CN1c2ccncc2N(C=O)Cc2cccn21.O=C(O)/C=C\C(=O)O [11-Formyl-10,11-dihydro-5-methyl-5H-pyrido[3,4-f]pyrrolo[1,2-b][1,2,5]triazepine maleate]
% Inhibition of Writhing at a Screening Dose of 20 mg/kg, s.c. [3]: 47%

CN1c2ccncc2NC(c2ccccc2)c2cccn21 (centres unmarked) [10,11-dihydro-5-methyl-10-phenyl-5H-pyrido[3,4-f]pyrrolo[1,2-b][1,2,5]triazepine]
% Inhibition of Writhing at a Screening Dose of 20 mg/kg, s.c. [3]: 47%

CNC(=O)Oc1ccc2c(c1)[C@]1(C)CCN(C)[C@@H]1N2C [physostigmine, reference compound]
% of Animals With Scopolamine Induced Memory Deficit Reversed ([2]; 0.31 mg/kg s.c.): 20%

CN(C)CCCC1Nc2cnccc2N(C)n2cccc21 (centres unmarked) [10,11-Dihydro-5-methyl-10-[3-(N,N-dimethylamino)propyl]-5H-pyrido[3,4-f]pyrrolo[1,2-b][1,2,5]triazepine]
% Inhibition of Writhing at a Screening Dose of 20 mg/kg, s.c. [3]: 57% | % of Animals With Scopolamine Induced Memory Deficit Reversed ([2]; 1.25 mg/kg s.c.): 27%

CC(=O)Oc1ccccc1C(=O)O [Aspirin, reference compound]
ED50 [4]: 110 mg/kg

CNC(=O)N1Cc2cccn2N(C)c2ccncc21.O=C(O)/C=C\C(=O)O [10,11-Dihydro-5-methyl-11-methylcarbamyl-5H-pyrido[3,4-f]pyrrolo[1,2-b][1,2,5]triazepine maleate]
% Inhibition of Writhing at a Screening Dose of 20 mg/kg, s.c. [3]: 44%

CN1CCC(C2Nc3cnccc3N(C)n3cccc32)CC1 (centres unmarked) [10,11-Dihydro-5-methyl-10-[(1-methyl)piperidin-4-yl]-5H-pyrido[3,4-f]pyrrolo[1,2-b][1,2,5]triazepine]
ED50 ([4]; rats, p.o., daily for 21 days, dose for 50% inhibition of adjuvant induced inflammation, non-injected paw): 53.7 mg/kg | ED50 [1]: 15.7 mg/kg

CN(C)CCC=C1c2ccccc2CCc2ccccc21 [amitryptyline, reference compound]
ED50 [1]: 1.5 mg/kg

CC(C)=CCN1CCC2(C)c3cc(O)ccc3CC1C2C (centres unmarked) [Pentazocine, reference compound]
% Inhibition of Writhing ([3]; at a dose of 1.3 mg/kg s.c. (footnote 2)): 50%

CN1c2ccncc2NCc2cccn21 [10,11-Dihydro-5-methyl-5H-pyrido[3,4-f]pyrrolo[1,2-b][1,2,5]triazepine]
% Inhibition of Writhing ([3]; at a dose of 12.6 mg/kg s.c. (footnote 1)): 50%
